Measured values reported in patent EP4080216A1, “METHODS DETERMINING THE POTENTIAL OF DRUGS FOR TREATING BACTERIAL INFECTIONS AND COMPOSITION FOR TREATING BACTERIAL INFECTIONS” (priority 2021, dated 2022).
“Also recorded” adds a separate entry of the source.

Legend:
[1] = test system: Hox8b-derived murine dendritic cells; experiment: adhesion assay: adhesion of dendritic cells infected with type I piliated (ON) bacteria, Hoechst fluorescence plate reader and brightfield images; format: cell-based; conditions: ON bacteria at multiplicity of infection of 10, 18 to 20 hours post infection
Experimental: In one embodiment, the dendritic cells are dendritic cells from any mammalian species such as human, primate, mouse, cow, pig, dog, goat, rabbit, rat and cow. In one embodiment, the dendritic cells are human or murine dendritic cells. In another embodiment, the dendritic cells are established dendritic cell lines. In another embodiment, the dendritic cells are human dendritic cell lines such as Thp-1, HL-60, MUTZ-3, U937, KG-1 and PDMC05. In one embodiment, the dendritic cells are cultured in regular cell culture dishes or cell culture plates known to the skilled person in the art. In another embodiment, the cell culture dishes or cell culture plates are treated with different extracellular matrix components such as fibronectin or fibrinogen or combinations thereof. In another embodiment, genetically modified dendritic cells are used. In a preferred embodiment, the genetically modified dendritic cells express a fluorescent marker. In a particularly preferred embodiment, the genetically modified dendritic cells have a fluorescently labelled actin cytoskeleton. In a particularly preferred embodiment, the genetically modified dendritic cells express LifeAct®-GFP and therefore, have a fluorescently labelled actin cytoskeleton. In one embodiment, the dendritic cells are infected with the bacteria at a multiplicity of infection of 1-100 (1-100 bacteria per 1 dendritic cell). The skilled person is aware that infected dendritic cells are activated dendritic cells. In another embodiment, the dendritic cells are infected with the bacteria at a multiplicity of infection of 1-30 (1-30 bacteria per 1 dendritic cell). In a particularly preferred embodiment, the dendritic cells are infected with the bacteria at a multiplicity of infection of 10 (10 bacteria per 1 dendritic cell). In one embodiment, the infection causing type I piliated gram-negative bacteria are causing neonatal meningitis. In another embodiment, the infection causing type I piliated gram-negative bacteria are causing inflammatory bowel diseases such as Crohn's disease or ulcerative colitis. In one embodiment, the infection causing type I piliated gram-negative bacteria causes Crohn's disease. In another embodiment, the infection causing type I piliated gram-negative bacteria causes ulcerative colitis. In yet another embodiment, the infection causing type I piliated gram-negative bacteria causes gastrointestinal disorders or gastrointestinal diseases such as salmonellosis. In a preferred embodiment, the infection causing type I piliated gram-negative bacteria cause urinary tract infections. In a particularly preferred embodiment, the type I piliated gram-negative bacteria causing urinary tract infections are uropathogenic E. coli. […]

CD14 = experiment: bead assay: binding of fluorescent FimH-expressing (ON) bacteria to CD14-coupled magnetic beads, flow cytometry; design: species or system murine
Experimental: In one embodiment, the CD14 protein is a recombinant chimeric protein. In a preferred embodiment, the CD14 protein comprises the murine N-terminal of CD14 which is bound to protein A on the magnetic beads via the Fc tail. In another embodiment, the magnetic beads are pre-coated with protein A. In one preferred embodiment, a fluorescent marker is stably integrated into the DNA of the bacteria. The stable integration of a fluorescent marker into the bacteria DNA is performed by any conventional means known to the skilled person such as by transforming the bacteria with a conditional-replication, integration, and modular (CRIM) plasmid. In another embodiment, the fluorescent marker is transiently integrated into the DNA of the bacteria. The transient integration of a fluorescent marker into the bacteria DNA is performed by any conventional means known to the skilled person such as by transforming the bacteria with a plasmid harbouring the fluorescent marker. In another embodiment, the DNA is visualized by a fluorescent marker added after step f). In a preferred embodiment, the fluorescent marker added after step f) is a fluorescent dye. In the latter embodiment, the fluorescent marker or fluorescent dye is thiazole orange, Hoechst 3342, Hoechst 3358, or carboxyfluorescein diacetate (CFDA) and its derivatives. In one embodiment, the infection causing type I piliated gram-negative bacteria are causing neonatal meningitis. In another embodiment, the infection causing type I piliated gram-negative bacteria are causing inflammatory bowel diseases such as Crohn's disease or ulcerative colitis. In one embodiment, the infection causing type I piliated gram-negative bacteria causes Crohn's disease. In another embodiment, the infection causing type I piliated gram-negative bacteria causes ulcerative colitis. In yet another embodiment, the infection causing type I piliated gram-negative bacteria causes gastrointestinal disorders or gastrointestinal diseases such as salmonellosis. In a preferred embodiment, the infection causing type I piliated gram-negative bacteria cause urinary tract infections. In a particularly preferred embodiment, the type I piliated gram-negative bacteria causing urinary tract infections are uropathogenic E. coli. In one embodiment, the incubation of the type I piliated gram-negative bacteria with the CD14-coupled magnetic beads and the added drug or compound lasts between ten minutes and six hours. In one embodiment, the incubation takes between 30 minutes and three hours. In a particularly preferred embodiment, the incubation takes between 45 and 90 minutes. In one embodiment, the added drug or compound is an inhibitor, antibody or antibiotic. […]

CNC(=O)c1cc(C(=O)NC)cc(-c2ccc(O[C@H]3O[C@H](CO)[C@@H](O)[C@H](O)[C@@H]3O)c(C)c2)c1 [M4284]
adhesion of dendritic cells ([1]; 10 µM): resulted in decreased adhesion; also recorded: partially able to do so
inhibit binding of ON bacteria to CD14-coupled beads (CD14; 10 µM, UPEC ON bacteria, one hour at 4 °C): prevented binding; also recorded: able to inhibit binding

D-mannose
adhesion of dendritic cells ([1]; 175 µM): did not decrease adhesion
adhesion of dendritic cells ([1]; 1 mM): resulted in decreased adhesion; also recorded: partially able to do so
block binding of ON bacteria to CD14 (CD14; 175 µM, UPEC ON bacteria, one hour at 4 °C): not sufficient to block binding
inhibit binding of ON bacteria to CD14-coupled beads (CD14; 1 mM, UPEC ON bacteria, one hour at 4 °C): prevented binding; also recorded: able to inhibit binding

Cc1c2c(c(O)c3c(O)cccc13)C(=O)[C@]1(O)C(=O)C(C(N)=O)=C(O)[C@@H](N(C)C)[C@@H]1C2 [anhydrotetracycline]
adhesion of dendritic cells ([1]; concentration not given): increased adhesion even further; also recorded: significantly increased adhesion
prevent binding of ON bacteria to CD14-coupled beads (CD14; sub-minimal inhibitory concentrations, ON bacteria): not able to prevent binding
